This is an account of results in ChEMBL document CHEMBL3745712, “Identification of N-(4-((1R,3S,5S)-3-Amino-5-methylcyclohexyl)pyridin-3-yl)-6-(2,6-difluorophenyl)-5-fluoropicolinamide (PIM447), a Potent and Selective Proviral Insertion Site of Moloney Murine Leukemia (PIM) 1, 2, and 3 Kinase Inhibitor in Clinical Trials for Hematological Malignancies” (J Med Chem, 2015).

Series [1] is described as follows: cells. To be noted: Homo sapiens, KMS-11, 72 h. It counts as functional, cell-based.
Description: Antiproliferative activity against luciferase expressing human KMS11 cells after 72 hrs by Cell-TiterGlo assay
The nature of series [2]: in vitro. To be noted: human, microsomes.
The target of series [3] is Serine/threonine-protein kinase pim-3 (Homo sapiens, UniProt Q86V86).
Series [4] can be described thus: in vitro. To be noted: rat, microsomes.
Series [5] can be described thus: in vitro. To be noted: rat, microsomes. The source holds these as a separate data set.
Series [6] in a line: in vitro. As to conditions: human, microsomes. This is another data set of the same source.
Series [7] deals with Serine/threonine-protein kinase pim-1 (Homo sapiens, UniProt P11309).
Serine/threonine-protein kinase pim-1, sequence (P11309 whole entry): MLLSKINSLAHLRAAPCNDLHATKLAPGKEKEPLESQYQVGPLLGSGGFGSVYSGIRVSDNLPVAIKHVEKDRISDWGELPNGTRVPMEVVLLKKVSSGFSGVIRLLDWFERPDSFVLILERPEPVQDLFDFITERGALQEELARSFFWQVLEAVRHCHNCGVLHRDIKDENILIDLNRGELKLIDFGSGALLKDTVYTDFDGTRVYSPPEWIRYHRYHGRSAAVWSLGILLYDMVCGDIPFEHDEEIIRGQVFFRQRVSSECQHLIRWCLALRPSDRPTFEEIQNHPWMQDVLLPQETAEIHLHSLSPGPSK
Series [8] can be described thus: cells. Type of series: cell-based, KMS11. To be noted: Homo sapiens, KMS-11, 1 h.

The term EC50 denotes the concentration needed to bring the measured effect to its halfway point. A low value points to a more potent agent. Broadly, the half-life is the time needed for the level to fall by half in the phase considered. A low value points to rapid decline. Usually Ki stands for the equilibrium dissociation constant of an inhibitor or competing ligand from its target. `N[C@H]1CCCN(c2ccncc2NC(=O)c2ccc(F)c(-c3c(F)cccc3F)n2)C1`: in series [1], a half-maximal effect (EC50) was put at 1400 nM. Besides, the values for the half-life at 0.5 h, 1 µM in series [2] and in series [4] were 25 min and 13 min, respectively. Besides, the figures for the Ki in series [3] and in series [7] were below 3 nM and below 1 nM, respectively. For the same compound, the CLhep predicted at 0.5 h, 1 µM in series [5] is 44 mL/min/kg; in series [6], 16 mL/min/kg.
For `Nc1ccc(C2CCCCC2)nc1C(=O)Nc1cnccc1[C@@H]1CCC[C@H](N)C1`, the values for the half-life at 0.5 h, 1 µM in series [2] and in series [4] were 85 min and 8 min, respectively. Further, the CLhep predicted at 0.5 h, 1 µM in series [6] was 10 mL/min/kg.
Compound `N[C@@H]1CCCN(c2c(/C=C3\SC(=O)NC3=O)cccc2-c2ccccc2)C1` displayed an EC50 in series [1] of 670 nM.
Consider `C[C@@H]1C[C@H](N)CN(c2ccncc2NC(=O)c2csc(-c3c(F)cccc3F)n2)C1`, for which, in series [1], the EC50 came to 390 nM. In addition, the half-life at 0.5 h, 1 µM in series [2] is 49 min; in series [4], 9 min. Also, the CLhep predicted at 0.5 h, 1 µM in series [5] was 47 mL/min/kg; in series [6] it was 13 mL/min/kg.
In turn, `CN1CCC(CNc2ccc3ncc(-c4cccc(OC(F)(F)F)c4)n3n2)CC1` [SGI-1776] displayed an EC50 in series [1] of 5000 nM.
In turn, `N[C@H]1CCC[C@@H](c2ccncc2NC(=O)c2csc(-c3c(F)cccc3F)n2)C1` yielded an EC50 in series [1] of 5000 nM. Also, the half-life at 0.5 h, 1 µM in series [2] is 121 min; in series [4], 85 min. Also, the CLhep predicted at 0.5 h, 1 µM in series [5] was 21 mL/min/kg; in series [6] it was 8 mL/min/kg.
With `C[C@@H]1C[C@H](N)CN(c2ccncc2NC(=O)c2ccc(F)c(-c3ccccc3F)n2)C1`, the half-life at 0.5 h, 1 µM was determined as 13 min in series [2] and 11 min in series [4]. For the same compound, the Ki in series [3] is below 3 nM. For the same compound, the CLhep predicted at 0.5 h, 1 µM in series [5] is 45 mL/min/kg; in series [6], 18 mL/min/kg.
As for `Nc1ccc(C2CCCCC2)nc1C(=O)Nc1cnccc1N1CCC[C@H](N)C1`, the half-life at 0.5 h, 1 µM in series [2] was determined as 14 min; in series [4], 3 min. The Ki in series [3] is 3 nM; in series [7] it was below 1 nM. Further, the values for the CLhep predicted at 0.5 h, 1 µM in series [5] and in series [6] were 52 mL/min/kg and 18 mL/min/kg, respectively.
`N[C@H]1CCCN(c2ccncc2NC(=O)c2csc(-c3c(F)cccc3F)n2)C1` gave a half-maximal effective concentration (EC50) in series [1] of 1200 nM. Also, the half-life at 0.5 h, 1 µM in series [2] was found to be 70 min; in series [4] it was 6 min. In addition, the CLhep predicted at 0.5 h, 1 µM in series [5] is 49 mL/min/kg; in series [6] it was 11 mL/min/kg.
Consider `C[C@@H]1C[C@H](N)CN(c2ccncc2NC(=O)c2ccc(F)c(-c3c(F)cccc3F)n2)C1`, for which the half-life at 0.5 h, 1 µM in series [2] was found to be 40 min; in series [4], 20 min. Moreover, the CLhep predicted at 0.5 h, 1 µM in series [5] was 40 mL/min/kg; in series [6], 14 mL/min/kg.
Turning to `C[C@@H]1C[C@H](N)C[C@H](c2ccncc2NC(=O)c2csc(-c3c(F)cccc3F)n2)C1`, the EC50 in series [1] was found to be 910 nM; in series [8] it was 320 nM. Further, the half-life at 0.5 h, 1 µM in series [2] is above 180 min; in series [4] it was 65 min. Besides, the inhibition constant (Ki) is 4 nM in series [3] and below 1 nM in series [7]. Moreover, the CLhep predicted at 0.5 h, 1 µM in series [5] was 24 mL/min/kg; in series [6], below 6 mL/min/kg.
Consider `C[C@@H]1C[C@H](N)C[C@H](c2ccncc2NC(=O)c2ccc(F)c(-c3ccccc3F)n2)C1`, for which the half-life at 0.5 h, 1 µM is above 180 min in series [2] and 92 min in series [4]. In series [6], the CLhep predicted at 0.5 h, 1 µM is below 6 mL/min/kg.
